Experiments:
[1] = target: T1, ALDHTt515 (Thermus thermophilus, UniProt Q72KD3); experiment: X-ray crystal structure; settings: co-crystallised with 1 mM NADP+; cofactor binding cleft
T1 construct: gene TT_C0513; C-terminal truncation lacking the last 15 of 530 residues; tetramer; not the natural 515-residue HB8 enzyme

[2] = target: T2, ALDHTt508 (Thermus thermophilus, UniProt Q72KD3); experiment: fluorescence of NADH formation; assay type: biochemical; settings: 0.4 mM NAD+, 1 mM hexanal, pH 8.0, 50 °C; turnover only
T2 construct: gene TT_C0513; C-terminal truncation after residue 508 of 530; tetramer

[3] = target: T1, ALDHTt515; experiment: fluorescence of NADH formation; assay type: biochemical; settings: 0.4 mM NAD+, 1 mM hexanal, pH 8.0, 50 °C; turnover only
[4] = target: T3, ALDHTt530 (recombinant wild type ALDHTt) (Thermus thermophilus, UniProt Q72KD3); experiment: X-ray crystal structure; assay type: binding; settings: crystals with 50 mM propanal; substrate entry channel, anchor loop
T3 construct: gene TT_C0513; full length, 530 residues; homotetramer; 6FJX is the native protein
T3 sequence (Q72KD3 1-530): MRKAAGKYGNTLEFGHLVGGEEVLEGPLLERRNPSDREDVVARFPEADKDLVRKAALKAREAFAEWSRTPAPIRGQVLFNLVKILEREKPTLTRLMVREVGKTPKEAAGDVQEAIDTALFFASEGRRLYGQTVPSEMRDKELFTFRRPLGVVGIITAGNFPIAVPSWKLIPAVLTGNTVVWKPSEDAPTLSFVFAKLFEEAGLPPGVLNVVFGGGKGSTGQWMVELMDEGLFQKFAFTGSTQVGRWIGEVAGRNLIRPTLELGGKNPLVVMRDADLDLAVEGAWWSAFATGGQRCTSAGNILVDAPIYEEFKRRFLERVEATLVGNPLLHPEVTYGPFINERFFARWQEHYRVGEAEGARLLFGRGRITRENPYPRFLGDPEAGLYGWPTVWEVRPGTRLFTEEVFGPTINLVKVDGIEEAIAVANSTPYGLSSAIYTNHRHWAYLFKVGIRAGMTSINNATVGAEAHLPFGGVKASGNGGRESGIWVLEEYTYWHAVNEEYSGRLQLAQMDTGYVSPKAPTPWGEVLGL

[5] = target: native aldehyde dehydrogenase from Thermus thermophilus (ALDHTt native) (Thermus thermophilus); experiment: crystal structure; sitting-drop vapor diffusion at 20 °C against 50 mM MOPS pH 7.5 and 1.2 M ammonium sulfate; space group P4(1)2(1)2, two copies in the asymmetric unit, tetramer by NCS and crystallographic symmetry; recombinant proteins in the same conditions (ALDHTt515 with 1 mM NADP+, ALDHTt530 with 50 mM propanal)
[6] = substrate: CCC=O; experiment: fluorescence of NADH formation; assay type: biochemical, Thermus thermophilus; settings: 25 °C, NAD+ as cofactor, pH 8.0 (standard assay)

With `NC(=O)c1ccc[n+]([C@@H]2O[C@H](COP(=O)(O)OP(=O)(O)OC[C@H]3O[C@@H](n4cnc5c(N)ncnc54)[C@H](OP(=O)(O)O)[C@@H]3O)[C@@H](O)[C@H]2O)c1` [NADP^+] as the molecule, how does the X-ray crystal structure [1] read?
Its X-ray crystal structure is “The co-crystal structure of ALDHTt515 was solved with NADP^+ bound”.

Which “fluorescence of NADH formation” value [2] does the source give for `NC(=O)c1ccc[n+]([C@@H]2O[C@H](COP(=O)(O)OP(=O)(O)OC[C@H]3O[C@@H](n4cnc5c(N)ncnc54)[C@H](O)[C@@H]3O)[C@@H](O)[C@H]2O)c1` [NAD^+] here?
The value was “both truncated mutants ALDHTt508 and ALDHTt515 were slightly more active”.

What about the “fluorescence of NADH formation” value [3] of the same molecule?
Its value is “both truncated mutants ALDHTt508 and ALDHTt515 were slightly more active”.

For `CCC(=O)O` [propanoic acid], which X-ray crystal structure [4] is on record?
The X-ray crystal structure was “yielded a structure with a product molecule, propanoic acid, in monomer A and B”.

How did the stoichiometry N [5] turn out when “native aldehyde dehydrogenase from Thermus thermophilus (ALDHTt native) (enzyme)” was run?
Its stoichiometry N is 4.

B1: ALDHTt530 (recombinant wild type ALDHTt) (Thermus thermophilus HB27) (protein)
chain: T3 sequence (Q72KD3 1-530)
notes: full length, 530 residues; homotetramer; 6FJX is the native protein
With B1 as the molecule, how does the Km [6] read?
Its Km is 2760 µM.
